# Target: T1, estradiol receptor (Homo sapiens, UniProt P03372)
# T1 construct: from tissue; host or cells: ewe uterine cytosol (inferred from the sister test)
# Experiment: ability to compete with estradiol for the receptor (log/logit curves, Rao et al.); relative binding affinity
# Conditions: competition with estradiol, estradiol = 100
# Description: It must be point out that the further the RBA value (relative binding affinity) is from 100, the lower the competitiveness of the steroid tested.
# T1 sequence (P03372 whole entry): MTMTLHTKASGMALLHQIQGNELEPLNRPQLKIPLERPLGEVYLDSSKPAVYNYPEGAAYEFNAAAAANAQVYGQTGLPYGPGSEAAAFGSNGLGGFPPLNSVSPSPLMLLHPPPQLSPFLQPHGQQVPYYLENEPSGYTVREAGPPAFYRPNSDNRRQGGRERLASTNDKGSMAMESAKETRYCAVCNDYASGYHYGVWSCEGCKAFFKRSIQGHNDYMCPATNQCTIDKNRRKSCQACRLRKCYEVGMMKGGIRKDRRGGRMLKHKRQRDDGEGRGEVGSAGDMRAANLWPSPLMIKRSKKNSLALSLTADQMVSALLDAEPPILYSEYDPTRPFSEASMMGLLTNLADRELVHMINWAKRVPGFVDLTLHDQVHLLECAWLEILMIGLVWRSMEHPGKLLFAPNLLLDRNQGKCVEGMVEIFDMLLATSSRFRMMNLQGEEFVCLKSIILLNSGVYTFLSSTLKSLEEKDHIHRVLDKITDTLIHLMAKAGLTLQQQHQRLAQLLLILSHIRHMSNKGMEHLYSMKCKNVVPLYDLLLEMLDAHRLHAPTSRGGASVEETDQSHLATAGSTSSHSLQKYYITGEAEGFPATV
structure (smiles),measurement,value
"CC(C)(C)[Si](C)(C)Oc1ccc2c(c1)CC[C@@H]1[C@@H]2CC[C@]2(C)[C@@H](O)CC[C@@H]12 [Compound 1, monosilylated β-estradiol]",RBA (%) (relative binding affinity),11%
